By IC50 is commonly meant the point on the concentration scale where inhibition reaches its midpoint.

The values that follow come from patent US8735414B2 (priority 2009, dated 2014).

The structures appear in SMILES notation.

The test system of the test is bicistronic HCV replicon (replicon RNA, GenBank Accession No. AJ242654). The experiment in a line: HCV Replicon Assay. Format: cell-based. The note with it: Hepatitis C virus, 72 h, read-out: Replicon IC50.
As to `Cc1ccc2c(C#N)c(-c3ccc(S(=O)(=O)N[C@@H](C)C(F)(F)F)cn3)n(-c3ccccc3)c2c1` [compound 440, 6-(3-cyano-6-methyl-1-phenyl-1H-indol-2-yl)-N-[(2S)-1,1,1-trifluoropropan-2-yl]pyridine-3-sulfonamide], the IC50 is less than 500 nM. In the case of `Cc1ccc2c(c1)c(C(N)=O)c(-c1ccc(S(=O)(=O)N[C@@H](C)C(F)(F)F)cn1)n2-c1ncccn1` [compound 846, 5-methyl-1-(pyrimidin-2-yl)-2-(5-{[(2S)-1,1,1-trifluoropropan-2-yl]sulfamoyl}pyridin-2-yl)-1H-indole-3-carboxamide], the IC50 was less than 500 nM. `Cc1cc2c(cc1F)c(C(=O)O)c(-c1ccc(S(=O)(=O)N[C@@H](C)C(F)(F)F)cn1)n2C1CCCC1` [compound 758, (S)-1-cyclopentyl-5-fluoro-6-methyl-2-(5-(N-(1,1,1-trifluoropropan-2-yl)sulfamoyl)pyridin-2-yl)-1H-indole-3-carboxylic acid]: the 50% inhibitory concentration (IC50) is less than 500 nM. Turning to `CCc1cc2c(cc1F)c(C(N)=O)c(-c1ccc(S(=O)(=O)NC(C)(C)C)cn1)n2-c1ccccn1` [compound 883, 2-(5-(N-tert-butylsulfamoyl)pyridin-2-yl)-6-ethyl-5-fluoro-1-(pyridin-2-yl)-1H-indole-3-carboxamide], the IC50 was less than 500 nM. `CCc1cc2c(cc1F)c(C#N)c(-c1ccc(S(=O)(=O)N[C@@H](C)C(F)(F)F)cn1)n2-c1ccc(C)cn1` [compound 931, 6-[3-cyano-6-ethyl-5-fluoro-1-(5-methylpyridin-2-yl)-1H-indol-2-yl]-N-[(2S)-1,1,1-trifluoropropan-2-yl]pyridine-3-sulfonamide]: the IC50 is less than 500 nM. Take `C[C@H](NS(=O)(=O)c1ccc(-c2c(C#N)c3cc(F)ccc3n2C2CCC2)nc1)C(F)(F)F` [compound 434, 6-(3-cyano-1-cyclobutyl-5-fluoro-1H-indol-2-yl)-N-[(2S)-1,1,1-trifluoropropan-2-yl]pyridine-3-sulfonamide]: the IC50 was less than 500 nM.

In the case of `COC(=O)c1c(-c2ncc(S(=O)(=O)N[C@@H](C)C(F)(F)F)cn2)n(C2CCC2)c2cc(C)c(F)cc12` [compound 774, methyl 1-cyclobutyl-5-fluoro-6-methyl-2-(5-{[(2S)-1,1,1-trifluoropropan-2-yl]sulfamoyl}pyrimidin-2-yl)-1H-indole-3-carboxylate], the half-maximal inhibitory concentration (IC50) was less than 500 nM. For `CC(C)n1c(-c2ncc(S(=O)(=O)NC(CF)CF)cn2)c(C#N)c2ccc(Cl)cc21` [compound 257, 2-[6-chloro-3-cyano-1-(propan-2-yl)-1H-indol-2-yl]-N-(1,3-difluoropropan-2-yl)pyrimidine-5-sulfonamide], the half-inhibitory concentration (IC50) lay in the range of 500 to 2000 nM. With `Cc1cc2c(cc1F)c(C#N)c(-c1ccc(S(=O)(=O)N[C@H](C)C(F)(F)F)cn1)n2C1CCOCC1` [compound 749, 6-[3-cyano-5-fluoro-6-methyl-1-(tetrahydro-2H-pyran-4-yl)-1H-indol-2-yl]-N-[(2R)-1,1,1-trifluoropropan-2-yl]pyridine-3-sulfonamide], the IC50 is less than 500 nM. Take `CC(C)(NS(=O)(=O)c1ccc(-c2c(C#N)c3ccc(C4CC4)cc3n2-c2ccccn2)nc1)C(F)(F)F` [compound 584, 6-[3-cyano-6-cyclopropyl-1-(pyridin-2-yl)-1H-indol-2-yl]-N-(1,1,1-trifluoro-2-methylpropan-2-yl)pyridine-3-sulfonamide]: the IC50 fell in the range of 500 to 2000 nM. Next, `C[C@H](NS(=O)(=O)c1ccc(-c2c(C#N)c3ccc(CC(F)F)cc3n2C2CCCC2)nc1)C1CC1` [compound 594, 6-[3-cyano-1-cyclopentyl-6-(2,2-difluoroethyl)-1H-indol-2-yl]-N-[(1S)-1-cyclopropylethyl]pyridine-3-sulfonamide]: less than 500 nM; `Cc1cc2c(cc1F)c(C#N)c(-c1ccc(S(=O)(=O)N[C@@H](C)C(F)(F)F)cn1)n2-c1ncccn1` [compound 634, 6-[3-cyano-5-fluoro-6-methyl-1-(pyrimidin-2-yl)-1H-indol-2-yl]-N-[(2S)-1,1,1-trifluoropropan-2-yl]pyridine-3-sulfonamide]: less than 500 nM; `COc1ccc2c(C#N)c(-c3ccc(S(=O)(=O)NC4CC(F)(F)C4)cn3)n(C3CCCC3)c2c1` [compound 246, 6-(3-cyano-1-cyclopentyl-6-methoxy-1H-indol-2-yl)-N-(3,3-difluorocyclobutyl)pyridine-3-sulfonamide]: 500 to 2000 nM.

Take `C[C@H](N(C(F)F)S(=O)(=O)c1ccc(-c2c(C#N)c3cc(F)c(OC(F)F)cc3n2C2CCC2)nc1)C(F)(F)F` [compound 712, 6-[3-cyano-1-cyclobutyl-6-(difluoromethoxy)-5-fluoro-1H-indol-2-yl]-N-(difluoromethyl)-N-[(2S)-1,1,1-trifluoropropan-2-yl]pyridine-3-sulfonamide]: the IC50 lay within 2000 to 5000 nM. Next, `Cc1ccc2c(C#N)c(-c3ccc(S(=O)(=O)N[C@@H](C)C4CC4)cn3)n(C3CCCC3)c2c1` [compound 426, 6-(3-cyano-1-cyclopentyl-6-methyl-1H-indol-2-yl)-N-[(1S)-1-cyclopropylethyl]pyridine-3-sulfonamide]: less than 500 nM; `C[C@@H](NS(=O)(=O)c1ccc(-c2c(C#N)c3ccc(Cl)cc3n2C2CCCC2)nc1)C(F)(F)F` [compound 223, 6-(6-chloro-3-cyano-1-cyclopentyl-1H-indol-2-yl)-N-[(2R)-1,1,1-trifluoropropan-2-yl]pyridine-3-sulfonamide]: less than 500 nM; `Cc1cc2c(cc1F)c(C(N)=O)c(-c1ncc(S(=O)(=O)N[C@@H](C)C(F)(F)F)cn1)n2C1CCCCC1` [compound 707, 1-cyclohexyl-5-fluoro-6-methyl-2-(5-{[(2S)-1,1,1-trifluoropropan-2-yl]sulfamoyl}pyrimidin-2-yl)-1H-indole-3-carboxamide]: less than 500 nM. Consider `C[C@H](NS(=O)(=O)c1ccc(-c2c(C#N)c3cc(F)c(OC(F)F)cc3n2C2CCC2)nc1)C(F)(F)F` [compound 549, 6-[3-cyano-1-cyclobutyl-6-(difluoromethoxy)-5-fluoro-1H-indol-2-yl]-N-[(2S)-1,1,1-trifluoropropan-2-yl]pyridine-3-sulfonamide], for which the concentration for half-maximal inhibition (IC50) was less than 500 nM.

For `N#Cc1c(-c2ccc(S(=O)(=O)NC(CF)CF)cn2)n(C2CCC2)c2ccc(C(F)F)cc12` [compound 378, 6-[3-cyano-1-cyclobutyl-5-(difluoromethyl)-1H-indol-2-yl]-N-(1,3-difluoropropan-2-yl)pyridine-3-sulfonamide], the concentration for half-maximal inhibition (IC50) is less than 500 nM. In the case of `CCc1cc2c(cc1F)c(C#N)c(-c1ccc(S(=O)(=O)N[C@@H](C)C(F)(F)F)cn1)n2C1CC1` [compound 910, 6-(3-cyano-1-cyclopropyl-6-ethyl-5-fluoro-1H-indol-2-yl)-N-[(2S)-1,1,1-trifluoropropan-2-yl]pyridine-3-sulfonamide] it was less than 500 nM; in that of `Cc1cc2c(cc1O)c(C#N)c(-c1ccc(S(=O)(=O)N[C@H](C)C(F)(F)F)cn1)n2C1CCCC1` [compound 693, 6-(3-cyano-1-cyclopentyl-5-hydroxy-6-methyl-1H-indol-2-yl)-N-[(2R)-1,1,1-trifluoropropan-2-yl]pyridine-3-sulfonamide], less than 500 nM.
